Measurements reported in article PMC6628435, “Chemical Synthesis, Proper Folding, Nav Channel Selectivity Profile and Analgesic Properties of the Spider Peptide Phlotoxin 1” (Toxins, 2019).
pIC50: −log10 of the molar value. Bridge positions count the residues as written; N and C are the ends. Peptide text beside a SMILES is read from it.

Key:
[1] = target: T1, human Nav1.7 (Homo sapiens, UniProt Q15858); assay: Automated patch-clamp (Nanion SyncroPatch 384PE) on CHO cells expressing human Nav1.7; format: cell-based; conditions: for block of Nav1.7 inward current: 100 nM toxin, end of application (about 12-13 min), CHO hNav1.7; for Hill value: same dose-response fit as IC50, CHO hNav1.7 automated patch-clamp
T1 construct: expressed in transfected cells
Excerpt: We used a CHO mammalian cell line expressing the human Nav1.7 instead of Xenopus oocytes for the pharmacological evaluation. […] 100-ms pulses from −100 mV to −10 mV were applied at a frequency of 0.2 Hz and various concentrations of PhlTx1 were applied to the cells. […] Using a manual patch clamp, which is better suited to investigate current recovery from block than an automated patch clamp that requires several washing steps, we investigated the reversibility properties of a PhlTx1 block.
CHO cells stably expressing the human Nav1.7 cells were cultured in Dulbecco’s Modified Eagle’s Medium (DMEM) supplemented with 10% fetal calf serum, 1 mM pyruvic acid, 4 mM glutamine, 10 IU/mL penicillin and 10 μg/mL streptomycin (Gibco, Grand Island, NY, USA), and incubated at 37 °C in a 5% CO2 atmosphere. For automated patch-clamp recordings, cells were detached with trypsin and floating single cells were diluted (~300,000 cells/mL) in medium contained (in mM): 4 KCl, 140 NaCl, 5 Glucose, 10 HEPES (pH 7.4, osmolarity 290 mOsm).
Chips with single-hole and high-resistance (~6–7 MΩ) were used for CHO cell recordings. Voltage pulses and whole-cell recordings were achieved using the PatchControl384 v1.5.2 software (Nanion, Munich, Germany) and the Biomek v1.0 interface (Beckman Coulter). Prior recordings, dissociated cells were shaken at 60 RPM in a cell hotel reservoir at 10 °C. After cell catching, sealing, whole-cell formation, liquid application, recording, and data acquisition were all performed sequentially and automatically. […] Whole-cell experiments were done at −100 mV holding potential and at room temperature (18–22 °C), while currents triggered at −10 mV test potential were sampled at 20 kHz. Stimulation frequency was set at 0.2 Hz. Toxins were prepared at various concentrations in the extracellular solution, itself supplemented with 0.3% BSA. […] Compound solutions were diluted 3 times in the patch-clamp recording well by adding 30 μL to 60 μL external solution to reach the final reported concentration and the test volume of 90 μL. Percentages of current inhibitions were measured at the end of a 12- to 15-min application time (12-min for fast blocking toxins; 15-min for slow blocking ones). A single concentration of peptide was tested on each cell for building the full-inhibition curves.

[2] = test system: human Nav1.7 channel; conditions: ref [45]; cited from earlier work
[3] = test system: formalin-induced spontaneous pain behavior; assay: Formalin pain test in mice after intrathecal injection; format: in vivo, C57BL/6J mice; conditions: mouse, in vivo

T1 sequence (Q15858 whole entry): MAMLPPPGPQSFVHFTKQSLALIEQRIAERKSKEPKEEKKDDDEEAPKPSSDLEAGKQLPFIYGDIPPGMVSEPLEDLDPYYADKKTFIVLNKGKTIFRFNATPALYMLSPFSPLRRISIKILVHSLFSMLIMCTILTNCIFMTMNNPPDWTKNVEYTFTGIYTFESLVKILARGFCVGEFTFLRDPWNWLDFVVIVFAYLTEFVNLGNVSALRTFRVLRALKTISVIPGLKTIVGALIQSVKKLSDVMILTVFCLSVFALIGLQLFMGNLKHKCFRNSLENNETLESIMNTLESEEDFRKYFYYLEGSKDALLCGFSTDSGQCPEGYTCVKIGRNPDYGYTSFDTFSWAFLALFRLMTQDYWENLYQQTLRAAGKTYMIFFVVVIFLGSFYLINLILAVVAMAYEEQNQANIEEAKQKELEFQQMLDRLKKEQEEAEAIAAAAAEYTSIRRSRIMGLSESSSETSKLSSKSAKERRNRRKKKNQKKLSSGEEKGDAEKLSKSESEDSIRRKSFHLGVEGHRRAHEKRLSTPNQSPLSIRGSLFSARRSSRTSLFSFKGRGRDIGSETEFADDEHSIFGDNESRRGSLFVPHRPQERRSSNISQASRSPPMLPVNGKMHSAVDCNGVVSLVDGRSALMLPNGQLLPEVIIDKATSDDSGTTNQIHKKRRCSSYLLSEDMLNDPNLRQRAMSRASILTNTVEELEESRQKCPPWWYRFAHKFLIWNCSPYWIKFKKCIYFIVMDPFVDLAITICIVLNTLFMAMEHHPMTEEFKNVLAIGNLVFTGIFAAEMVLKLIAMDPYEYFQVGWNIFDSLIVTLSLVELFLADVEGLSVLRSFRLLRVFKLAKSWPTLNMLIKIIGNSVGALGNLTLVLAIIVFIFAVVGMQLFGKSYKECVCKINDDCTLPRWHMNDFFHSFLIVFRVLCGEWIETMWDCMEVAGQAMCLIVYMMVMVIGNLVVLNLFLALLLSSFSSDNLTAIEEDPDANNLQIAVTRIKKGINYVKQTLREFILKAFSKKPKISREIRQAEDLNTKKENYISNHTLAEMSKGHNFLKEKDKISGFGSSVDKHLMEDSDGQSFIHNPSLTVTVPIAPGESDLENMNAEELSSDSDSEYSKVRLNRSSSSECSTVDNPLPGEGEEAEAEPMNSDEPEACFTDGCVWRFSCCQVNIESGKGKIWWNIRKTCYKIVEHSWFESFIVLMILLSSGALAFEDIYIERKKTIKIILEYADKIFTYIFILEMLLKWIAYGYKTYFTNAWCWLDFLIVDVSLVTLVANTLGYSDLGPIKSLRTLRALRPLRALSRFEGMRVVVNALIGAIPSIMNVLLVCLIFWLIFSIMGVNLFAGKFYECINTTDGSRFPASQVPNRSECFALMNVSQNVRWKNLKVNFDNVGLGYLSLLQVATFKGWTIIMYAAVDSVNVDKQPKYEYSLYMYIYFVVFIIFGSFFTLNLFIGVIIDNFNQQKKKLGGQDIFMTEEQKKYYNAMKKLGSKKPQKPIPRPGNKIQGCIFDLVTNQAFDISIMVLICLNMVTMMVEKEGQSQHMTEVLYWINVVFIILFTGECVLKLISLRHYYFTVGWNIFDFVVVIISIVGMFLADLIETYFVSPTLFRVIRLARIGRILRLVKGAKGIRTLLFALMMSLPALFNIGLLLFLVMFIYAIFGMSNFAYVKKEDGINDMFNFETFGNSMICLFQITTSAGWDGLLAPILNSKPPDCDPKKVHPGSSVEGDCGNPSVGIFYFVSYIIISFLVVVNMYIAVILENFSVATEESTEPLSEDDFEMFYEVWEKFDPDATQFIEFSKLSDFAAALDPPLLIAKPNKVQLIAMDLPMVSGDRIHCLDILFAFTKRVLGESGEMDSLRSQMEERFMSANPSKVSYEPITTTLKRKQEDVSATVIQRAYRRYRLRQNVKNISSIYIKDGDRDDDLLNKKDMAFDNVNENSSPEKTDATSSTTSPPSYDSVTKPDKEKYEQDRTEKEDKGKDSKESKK

With `CC[C@H](C)[C@@H]1NC(=O)[C@H](CC(N)=O)NC(=O)[C@H](CCCNC(=N)N)NC(=O)[C@@H]2CCCN2C(=O)[C@H](Cc2c[nH]c3ccccc23)NC(=O)[C@H](CCCCN)NC(=O)[C@H](CO)NC(=O)[C@H](CCCCN)NC(=O)[C@@H]2CSSC[C@@H]3NC(=O)[C@H](CCCCN)NC(=O)CNC(=O)[C@H](Cc4c[nH]c5ccccc45)NC(=O)[C@H](Cc4ccccc4)NC(=O)[C@H](CCCNC(=N)N)NC(=O)[C@H](C(C)C)NC(=O)[C@@H](NC(=O)[C@@H](N)CC(=O)O)CSSC[C@H](NC(=O)[C@H](CSSC[C@@H](C(=O)N[C@H](C(=O)N[C@@H](Cc4c[nH]c5ccccc45)C(=O)N[C@@H](CC(=O)O)C(=O)NCC(=O)N[C@@H](CO)C(=O)N[C@H](C(=O)O)C(C)C)C(C)C)NC1=O)NC(=O)[C@H](CC(=O)O)NC(=O)[C@H](CO)NC(=O)[C@H]([C@@H](C)O)NC(=O)[C@H](CCC(N)=O)NC(=O)[C@H](CO)NC3=O)C(=O)N1CCC[C@H]1C(=O)N[C@@H](Cc1c[nH]cn1)C(=O)N[C@@H](CC(C)C)C(=O)N[C@@H](C)C(=O)N2` [GrTx1] the pIC50 [1] was 7.82 and the “block of Nav1.7 inward current” value [1] was “about 50%”.
Work on `CC[C@H](C)[C@H](NC(=O)[C@H](CCCCN)NC(=O)[C@H](CCCCN)NC(=O)[C@H](CCCCN)NC(=O)[C@@H]1CSSC[C@@H]2NC(=O)[C@H](CCCCN)NC(=O)[C@H](CCCNC(=N)N)NC(=O)[C@H](CCC(=O)O)NC(=O)[C@H](CCC(=O)O)NC(=O)[C@H](CC(=O)O)NC(=O)[C@@H]3CSSC[C@H](NC(=O)[C@H](C(C)C)NC(=O)[C@H](CC(C)C)NC(=O)CNC(=O)[C@H](CCC(=O)O)NC(=O)[C@H](CSSC[C@H](NC(=O)[C@@H](N)Cc4ccc(O)cc4)C(=O)N[C@@H](CCC(N)=O)C(=O)N[C@@H](CCCCN)C(=O)N[C@@H](Cc4c[nH]c5ccccc45)C(=O)N[C@@H](CCSC)C(=O)N[C@@H](Cc4c[nH]c5ccccc45)C(=O)N[C@@H]([C@@H](C)O)C(=O)N3)NC2=O)C(=O)N[C@@H](CCCNC(=N)N)C(=O)N[C@@H](CC(C)C)C(=O)N[C@@H](Cc2c[nH]c3ccccc23)C(=O)N1)C(=O)N[C@@H](CCC(=O)O)C(=O)N[C@@H](Cc1c[nH]c2ccccc12)C(=O)O` [GsAFII] (H-YCQKWMWTCDEERKCCEGLVCRLWCKKKIEW-OH; disulfide 2-16, 9-21, 15-25) yielded a pIC50 [1] of 7.87.
With `CC[C@H](C)[C@H](NC(=O)[C@H](CCC(=O)O)NC(=O)[C@H](Cc1ccc(O)cc1)NC(=O)[C@H](CCCCN)NC(=O)[C@@H]1CSSC[C@@H]2NC(=O)[C@H](CCC(N)=O)NC(=O)[C@H](CC(=O)O)NC(=O)[C@H](CC(N)=O)NC(=O)[C@H](CO)NC(=O)[C@@H]3CCCN3C(=O)[C@H](CC(N)=O)NC(=O)[C@@H]3CSSC[C@H](NC(=O)[C@H](C(C)C)NC(=O)[C@H](CC(C)C)NC(=O)[C@H](CC(N)=O)NC(=O)[C@H](CO)NC(=O)[C@H](CO)NC(=O)[C@H](CCCCN)NC(=O)[C@H](CSSC[C@H](NC(=O)[C@@H](N)CCC(=O)O)C(=O)N[C@@H](CC(C)C)C(=O)NCC(=O)N[C@@H](Cc4ccccc4)C(=O)NCC(=O)N[C@@H](CCCCN)C(=O)NCC(=O)N3)NC2=O)C(=O)N[C@@H](CO)C(=O)N[C@@H](CCCNC(=N)N)C(=O)N[C@@H](CCCCN)C(=O)N[C@@H](Cc2c[nH]cn2)C(=O)N[C@@H](CCCNC(=N)N)C(=O)N[C@@H](Cc2c[nH]c3ccccc23)C(=O)N1)C(N)=O` [HnTx-IV] the pIC50 [1] was 8.37.
With `CC(C)C[C@H](NC(=O)[C@H](CCCCN)NC(=O)[C@H](Cc1c[nH]c2ccccc12)NC(=O)[C@H](CCCCN)NC(=O)[C@@H]1CSSC[C@@H]2NC(=O)[C@H](CCC(=O)O)NC(=O)[C@H](CC(N)=O)NC(=O)[C@H](CCCCN)NC(=O)CNC(=O)[C@@H]3CCCN3C(=O)[C@H]([C@@H](C)O)NC(=O)[C@@H]3CSSC[C@H](NC(=O)[C@H](C(C)C)NC(=O)[C@H](CCCNC(=N)N)NC(=O)[C@H](CC(N)=O)NC(=O)[C@@H]4CCCN4C(=O)[C@H](CSSC[C@H](NC(=O)[C@H](C)N)C(=O)N[C@@H](CCCCN)C(=O)NCC(=O)N[C@@H](C(C)C)C(=O)N[C@@H](Cc4ccccc4)C(=O)N[C@@H](CC(=O)O)C(=O)N[C@@H](C)C(=O)N3)NC2=O)C(=O)N[C@@H](CO)C(=O)N[C@@H](CC(=O)O)C(=O)N[C@@H](CCCCN)C(=O)N[C@@H](Cc2c[nH]cn2)C(=O)N[C@@H](CCCCN)C(=O)N[C@@H](Cc2c[nH]c3ccccc23)C(=O)N1)C(=O)O` [HwTx-I] (H-ACKGVFDACTPGKNECCPNRVCSDKHKWCKWKL-OH; disulfide 2-17, 9-22, 16-29; N-terminus and C-terminus assumed) the “block of Nav1.7 inward current” value [1] was “incomplete block”, the “time constant of inhibition (τ)” value ([1]; 100 nM, mono-exponential fit (PhlTx1 n = 8)) was 492 s and the Hill value [1] was 2.3.
For `CSCC[C@@H]1NC(=O)[C@H](Cc2ccc(O)cc2)NC(=O)[C@H](CCCNC(=N)N)NC(=O)[C@@H](NC(=O)[C@@H](N)CC(=O)O)CSSC[C@@H]2NC(=O)[C@@H]3CSSC[C@@H](C(=O)N[C@@H](C)C(=O)N[C@@H](Cc4c[nH]c5ccccc45)C(=O)N[C@@H](CC(=O)O)C(=O)N[C@@H](Cc4ccccc4)C(=O)N[C@H](C(=O)N[C@@H](Cc4ccccc4)C(=O)N[C@H](C(=O)O)[C@@H](C)O)[C@@H](C)O)NC(=O)[C@H](Cc4ccc(O)cc4)NC(=O)[C@H](CCCCN)NC(=O)[C@H](CCSC)NC(=O)[C@H](CCCCN)NC(=O)[C@H](CCCNC(=N)N)NC(=O)[C@H](CCCCN)NC(=O)[C@H](CSSC[C@H](NC(=O)[C@H](CC(=O)O)NC(=O)CNC(=O)[C@H](Cc4ccccc4)NC1=O)C(=O)N[C@@H](CCC(=O)O)C(=O)N[C@@H](CCCCN)C(=O)N[C@@H](CC(=O)O)C(=O)N[C@@H](CCC(=O)O)C(=O)N[C@@H](CC(=O)O)C(=O)N3)NC(=O)CNC(=O)[C@H](CC(C)C)NC(=O)[C@H](Cc1c[nH]cn1)NC(=O)[C@H](CCCCN)NC2=O` [Pn3a], the “block of Nav1.7 inward current” value [1] is given as “fully insensitive”, the Hill value [1] is given as 3 and the pIC50 [2] is given as 9.05.
For `CC(C)C[C@@H]1NC(=O)[C@H](Cc2c[nH]c3ccccc23)NC(=O)[C@H](Cc2ccc(O)cc2)NC(=O)[C@H](CCCNC(=N)N)NC(=O)[C@@H](NC(=O)[C@@H](N)CCC(=O)O)CSSC[C@@H]2NC(=O)[C@@H]3CSSC[C@@H](C(=O)N[C@H](C(=O)N[C@@H](Cc4c[nH]c5ccccc45)C(=O)N[C@@H](CC(=O)O)C(=O)NCC(=O)N[C@H](C(=O)N[C@@H](Cc4ccccc4)C(=O)N[C@@H](CO)C(=O)O)[C@@H](C)O)C(C)C)NC(=O)[C@H](Cc4c[nH]c5ccccc45)NC(=O)CNC(=O)[C@H](Cc4c[nH]cn4)NC(=O)[C@H](CCCNC(=N)N)NC(=O)[C@H](CCCNC(=N)N)NC(=O)[C@H](CO)NC(=O)[C@H](CSSC[C@H](NC(=O)CNC(=O)CNC1=O)C(=O)N[C@@H](CO)C(=O)N[C@@H](C)C(=O)NCC(=O)N[C@@H](CCC(N)=O)C(=O)N[C@@H]([C@@H](C)O)C(=O)N3)NC(=O)[C@H](C(C)C)NC(=O)[C@H](CC(C)C)NC(=O)[C@H](Cc1c[nH]cn1)NC(=O)[C@H](CCCCN)NC2=O` [ProTx-I], the pIC50 [1] was 8.15.
In the case of `CN1CC[C@]23c4c5ccc(O)c4O[C@H]2[C@@H](O)C=C[C@H]3[C@H]1C5` [morphine, reference compound], the “formalin-induced pain behavior (licking), Phase II (inflammation, 10–45 min)” value [3] was 0.
